Test results: US20240199623A1 (ILDONG PHARMACEUTICAL CO., LTD., priority 2020, published 2024)
pEC50: −log10 of the molar value. Values after ≈ are worked out from the molar mass of the structure shown.

Tests used:
human wild type-CFTR [1] = biological target: T1, human wild type-CFTR (Homo sapiens, UniProt P13569); experiment: Short-circuit current measurement; format: cell-based; parameters: expressed in transfected cells; conditions: FRT cells expressing human wild type-CFTR; Forskolin 20 μM signal used as 100% activity; read-out: Short-circuit current measurement (EC50) Concentration range
Excerpt: Forskolin (Tocris cat. #1099), CFTRinh-172 (Tocris cat. #3430), amphotericin B (Tocris cat. #6930), dimethyl sulfoxide (Sigma cat. #D4540), EVC4000 Multi-Channel V/I Clamp (World Precision Instruments, Sarasota, FL), PowerLab 4/35 (AD Instruments, Castle Hill, Australia), Labchart Pro 7, GraphPad Prism 5 (GraphPad Software, Inc.). Fisher rat thyroid (FRT) cells expressing human wild type-CFTR were provided by Dr. Alan Verkman (University of California, San Francisco) and grown in DMEM/F12 medium (1:1) supplemented with 10% FBS, 2 mM glutamine, 100 units/ml penicillin and 100 μg/ml streptomycin. Snapwell inserts containing CF TR-expressing FRT cells were mounted in Ussing chambers (Physiologic Instruments, San Diego, CA). […] Forskolin, test compounds, and CFTRinh-172 were added to the apical and basolateral bath solution. Apical membrane current and short-circuit current were measured with an EVC4000 Multi-Channel V/I Clamp (World Precision Instruments, Sarasota, FL) and recorded using PowerLab 4/35 (AD Instruments, Castle Hill, Australia). Data were collected and analyzed with ADInstruments acquisition software Labchart Pro 7 software. The sampling rate was 4 Hz.

[2] = Phosphate-buffered saline (PBS) solubility of compounds; format: physicochemical; conditions: aqueous buffer, thermodynamic from solid, PBS pH 7.5, 0.5 mg/mL, vortexed 90 min, filtered, LC-MS/MS, read-out: Solubility Range
Procedure: PBS solutions (pH 7.5) were prepared according to the following compositions and stored at 4° C. Test compounds were dissolved in PBS (pH 7.5) at 0.5 mg/mL and vortexed for 90 min. The PBS solution was sequentially filtered through a 0.45, 1.2, […] syringe filter. Concentration of test compounds were determined using LC-MS/MS with appropriate dilution of the samples.

C57BL/6 female mice = experiment: Scopolamine induced tear volume reduction model; format: in vivo, mouse; conditions: scopolamine-injected mice, ophthalmic solution topically on both eyes 3 times a day, phenol red thread; average if evaluated twice
Procedure: Seven-week old C57BL/6 female mice were used.
Scopolamine hydrobromide was purchased from Sigma Aldrich (Cat No. S0929), dissolved in saline, and sterilized prior to use.
Zone-Quick phenol red thread was obtained from Menicon.
The test compounds used in this experiment were dissolved in PBS containing 1% of surfactant.
Scopolamine (0.2 ml of 2.5 mg/mL solution) was injected subcutaneously 3 times a day to induce a decrease in the tear volume in the mouse. At the same time, the ophthalmic solution of test compounds or vehicle were topically administered onto both eyes 3 times a day. Tear volume was measured by phenol red thread before dosing (basal level) and 1 hour after the last administration of scopolamine and ophthalmic solution. The results were obtained by measuring the length of the phenol red thread turning red by tears. The schedule of study is expressed as FIG. 1.
If the test compound was evaluated twice, the average value was used.

human wild type-CFTR [3] = biological target: T1, human wild type-CFTR; experiment: Cell-based YFP assay; parameters: expressed in transfected cells; host or cells: CHO-K1 (Chinese hamster ovary); conditions: CHO-K1 cells expressing human wild type-CFTR and YFP-H148Q/I152L; forskolin 20 μM = 100% activity; read-out: Cell-based YFP Assay (EC50) Concentration Range
Method in brief: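 I⁻-driven YFP fluorescence quenching at 37 °C: 2 s baseline, addition of 140 mM iodide solution, then 14 s of readings at 0.4 s intervals. Cells were CHO-K1 expressing human wild-type CFTR plus YFP-H148Q/I152L. EC50 derived from averaged triplicates.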

T1 sequence (P13569 whole entry): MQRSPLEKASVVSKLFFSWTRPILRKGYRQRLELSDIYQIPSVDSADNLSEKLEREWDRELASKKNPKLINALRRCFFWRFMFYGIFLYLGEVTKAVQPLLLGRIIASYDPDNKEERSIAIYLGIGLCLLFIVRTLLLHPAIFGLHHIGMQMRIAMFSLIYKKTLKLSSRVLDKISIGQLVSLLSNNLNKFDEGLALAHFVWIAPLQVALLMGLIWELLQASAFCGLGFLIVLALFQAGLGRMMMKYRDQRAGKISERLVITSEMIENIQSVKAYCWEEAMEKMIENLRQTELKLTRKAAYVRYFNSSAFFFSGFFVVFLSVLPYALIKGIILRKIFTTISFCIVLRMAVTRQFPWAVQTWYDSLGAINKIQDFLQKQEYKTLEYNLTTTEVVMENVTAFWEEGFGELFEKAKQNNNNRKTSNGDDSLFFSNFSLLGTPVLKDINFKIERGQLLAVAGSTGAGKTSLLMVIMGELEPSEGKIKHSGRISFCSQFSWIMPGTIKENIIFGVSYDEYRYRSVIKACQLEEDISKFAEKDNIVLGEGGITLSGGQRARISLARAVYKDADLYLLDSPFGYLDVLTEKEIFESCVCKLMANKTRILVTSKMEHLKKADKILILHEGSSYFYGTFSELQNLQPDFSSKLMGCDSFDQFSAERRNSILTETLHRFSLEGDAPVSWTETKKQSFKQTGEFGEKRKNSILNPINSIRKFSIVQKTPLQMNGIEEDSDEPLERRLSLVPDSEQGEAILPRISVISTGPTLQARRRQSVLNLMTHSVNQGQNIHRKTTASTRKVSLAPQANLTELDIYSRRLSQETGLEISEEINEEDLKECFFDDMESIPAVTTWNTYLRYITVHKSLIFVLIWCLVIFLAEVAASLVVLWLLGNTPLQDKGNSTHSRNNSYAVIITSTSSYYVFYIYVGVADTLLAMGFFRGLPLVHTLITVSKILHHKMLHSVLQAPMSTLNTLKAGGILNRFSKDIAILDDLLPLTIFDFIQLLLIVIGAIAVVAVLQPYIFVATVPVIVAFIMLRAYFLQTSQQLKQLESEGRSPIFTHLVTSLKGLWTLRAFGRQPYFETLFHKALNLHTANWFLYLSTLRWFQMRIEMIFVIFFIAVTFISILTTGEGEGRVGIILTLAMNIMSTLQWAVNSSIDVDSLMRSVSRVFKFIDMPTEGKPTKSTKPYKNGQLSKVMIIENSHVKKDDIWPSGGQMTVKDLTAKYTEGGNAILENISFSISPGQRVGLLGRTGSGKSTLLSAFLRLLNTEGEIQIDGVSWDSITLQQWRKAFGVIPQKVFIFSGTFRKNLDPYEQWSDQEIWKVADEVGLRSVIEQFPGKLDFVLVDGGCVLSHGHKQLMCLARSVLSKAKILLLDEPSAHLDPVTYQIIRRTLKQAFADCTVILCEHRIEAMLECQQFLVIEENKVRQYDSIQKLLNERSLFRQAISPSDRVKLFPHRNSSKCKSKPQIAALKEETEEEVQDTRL

SMILES	pEC50 (human wild type-CFTR [1])	solubility at 90 min [2]	Ratio of tear volume (test compound to vehicle) (C57BL/6 female mice)	pEC50 (human wild type-CFTR [3])
COc1ccc(-c2ccnc3cc(C(=O)N[C@H]4CC[C@H](O)CC4)nn23)cc1OC [Compound 69, 7-(3,4-dimethoxyphenyl)-N-((1R,4R)-4-hydroxycyclohexyl)pyrazolo [1,5-a]pyrimidine-2-carboxamide]	≤ 5.70	> 10 µg/mL	0.76	5.70 to 6.70
COc1ccc(-c2ccnc3cc(C(=O)NC4CCCCC4)nn23)cc1OC [Compound 2, N-cyclohexyl-7-(3,4-dimethoxyphenyl)pyrazolo[1,5-a]pyrimidine-2-carboxamide]	5.70 to 6.70	< 0.1 µg/mL	1.40	> 6.70
COc1ccc(-c2ccnc3cc(C(=O)N[C@H]4CC[C@H](C(=O)OCCCN5CCOCC5)CC4)nn23)cc1OC [Compound 197, 3-morpholinopropyl (1r,4r)-4-(7-(3,4-dimethoxyphenyl)pyrazolo [1,5-a]pyrimidine-2-carboxamido)cyclohexane-1-carboxylate]	5.70 to 6.70	–	1.18	5.70 to 6.70
COc1ccc(-c2ccnc3cc(C(=O)Nc4ccc(C(=O)O)cc4C)nn23)cc1OC [Compound 126, 4-(7-(3,4-dimethoxyphenyl)pyrazolo[1,5-a]pyrimidine-2-carboxamido)-3-methylbenzoic acid]	≤ 5.70	0.1 to 10 µg/mL (≈ 0.231 to 23.1 µM)	0.97	5.70 to 6.70
COc1ccc(-c2ccnc3cc(C(=O)Nc4ccc(N(C)C)cc4)nn23)cc1OC [Compound 276, 7-(3,4-dimethoxyphenyl)-N-(4-(dimethylamino)phenyl)pyrazolo[1,5-a]pyrimidine-2-carboxamide]	–	< 0.1 µg/mL	1.21	> 6.70
COc1ccc(-c2ccnc3cc(C(=O)Nc4ccc(N5CCN(C(=O)OC(C)(C)C)CC5)cc4)nn23)cc1OC [Compound 271, tert-butyl 4-(4-(7-(3,4-dimethoxyphenyl)pyrazolo [1,5-a]pyrimidine-2-carboxamido)phenyl) piperazine-1-carboxylate]	> 6.70	< 0.1 µg/mL	1.17	> 6.70
COc1ccc(-c2ccnc3cc(C(=O)NC45CCC(C(=O)N6CCOCC6)(CC4)CC5)nn23)cc1OC [Compound 186, 7-(3,4-dimethoxyphenyl)-N-(4-(morpholine-4-carbonyl)bicyclo[2.2.2]octan-1-yl)pyrazolo[1,5-a] pyrimidine-2-carboxamide]	5.70 to 6.70	> 10 µg/mL	1.05	> 6.70
COc1ccc(-c2ccnc3cc(C(=O)N[C@H]4CC[C@@H](C(=O)N5CCOCC5)CC4)nn23)cc1OC [Compound 72, 7-(3,4-dimethoxyphenyl)-N-((1S,4S)-4-(morpholine-4-carbonyl)cyclohexyl) pyrazolo[1,5-a]pyrimidine-2-carboxamide]	≤ 5.70	> 10 µg/mL	1.06	5.70 to 6.70
COC(=O)c1ccc(NC(=O)c2cc3nccc(-c4ccc(OC)c(OC)c4)n3n2)cc1F [Compound 141, methyl 4-(7-(3,4-dimethoxyphenyl)pyrazolo [1,5-a]pyrimidine-2-carboxamido)-2-fluorobenzoate]	> 6.70	< 0.1 µg/mL	1.34	> 6.70
COc1ccc(-c2ccnc3cc(C(=O)Nc4ccc(N5CC=CCC5)cc4)nn23)cc1OC [Compound 273, N-(4-(3,6-dihydropyridin-1(2H)-yl)phenyl)-7 (3,4-dimethoxyphenyl) pyrazolo[1,5-a]pyrimidine-2-carboxamide]	–	< 0.1 µg/mL	0.80	> 6.70
COc1ccc(-c2ccnc3cc(C(=O)Nc4ccc(NC(=O)OC(C)(C)C)cc4)nn23)cc1OC [Compound 256, tert-butyl (4-(7-(3,4-dimethoxyphenyl)pyrazolo [1,5-a]pyrimidine-2-carboxamido)phenyl) carbamate]	> 6.70	< 0.1 µg/mL	–	> 6.70
COC(=O)c1ccc(NC(=O)c2cc3nccc(-c4ccc(OC)c(OC)c4)n3n2)cc1Cl [Compound 140, methyl 2-chloro-4-(7-(3,4-dimethoxyphenyl)pyrazolo[1,5-a]pyrimidine-2-carboxamido)benzoate]	> 6.70	< 0.1 µg/mL	1.48	> 6.70
COc1ccc(-c2ccnc3cc(C(=O)Nc4ccc(N5CCN(C(=O)OC(C)(C)C)CC5)cn4)nn23)cc1OC [Compound 272, tert-butyl 4-(6-(7-(3,4-dimethoxyphenyl)pyrazolo [1,5-a]pyrimidine-2-carboxamido)pyridin-3-yl)piperazine-1-carboxylate]	–	< 0.1 µg/mL	1.14	> 6.70
COC(=O)c1ccc2c(c1)N(C(=O)c1cc3nccc(-c4ccc(OC)c(OC)c4)n3n1)CC2 [Compound 132, methyl 1-(7-(3,4-dimethoxyphenyl)pyrazolo [1,5-a]pyrimidine-2-carbonyl)indoline-6-carboxylate]	5.70 to 6.70	< 0.1 µg/mL	–	> 6.70
COc1ccc(-c2ccnc3cc(C(=O)Nc4ccc(C(=O)N[C@H](C(=O)N5CCN(C)CC5)C(C)C)cc4)nn23)cc1OC [Compound 146, (S)-7-(3,4-dimethoxyphenyl)-N-(4-((3-methyl-1-(4-methylpiperazin-1-yl)-1-oxobutan-2-yl)carbamoyl)phenyl) pyrazolo[1,5-a]pyrimidine-2-carboxamide]	> 6.70	< 0.1 µg/mL	–	> 6.70
COc1ccc(-c2ccnc3cc(C(=O)Nc4ccccn4)nn23)cc1OC [Compound 17, 7-(3,4-dimethoxyphenyl)-N-(pyridin-2-yl)pyrazolo[1,5-a] pyrimidine-2-carboxamide]	> 6.70	< 0.1 µg/mL	–	> 6.70
COc1ccc(-c2ccnc3cc(C(=O)Nc4ccc(C(=O)N5CCOCC5)cc4C)nn23)cc1OC [Compound 127, 7-(3,4-dimethoxyphenyl)-N-(2-methyl-4-(morpholine-4-carbonyl)phenyl)pyrazolo[1,5-a] pyrimidine-2-carboxamide]	5.70 to 6.70	< 0.1 µg/mL	–	5.70 to 6.70
COc1ccc(-c2ccnc3cc(C(=O)Nc4ccc(C(=O)O)cc4)nn23)cc1OC [Compound 14, 4-(7-(3,4-dimethoxyphenyl)pyrazolo[1,5-a]pyrimidine-2-carboxamido)benzoic acid]	≤ 5.70	0.1 to 10 µg/mL (≈ 0.239 to 23.9 µM)	–	5.70 to 6.70
COC(=O)c1ccc(NC(=O)c2cc3nccc(-c4ccc(OC)c(OC)c4)n3n2)nc1 [Compound 31, methyl 6-(7-(3,4-dimethoxyphenyl)pyrazolo [1,5-a]pyrimidine-2-carboxamido)nicotinate]	> 6.70	< 0.1 µg/mL	–	> 6.70
COC(=O)c1ccc2c(c1)CN(C(=O)c1cc3nccc(-c4ccc(OC)c(OC)c4)n3n1)CC2 [Compound 131, methyl 2-(7-(3,4-dimethoxyphenyl)pyrazolo [1,5-a]pyrimidine-2-carbonyl)-1,2,3,4-tetrahydroisoquinoline-7-carboxylate]	> 6.70	< 0.1 µg/mL	–	> 6.70
